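In this assay, cells in 96-well plates receive the compound at five concentrations for 48 hours. Endpoints are linearly interpolated between the surrounding concentrations. TGI: total growth inhibition.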
Columns and labels:
Test in all cases: NCI-60 cell line screen, 48 h
SK-MEL-5 melanoma = system: SK-MEL-5 melanoma
COLO 205 colon = system: COLO 205 colon
A498 renal = system: A498 renal
SF-295 CNS = system: SF-295 CNS
OVCAR-3 ovarian = system: OVCAR-3 ovarian
SF-268 CNS = system: SF-268 CNS
OVCAR-5 ovarian = system: OVCAR-5 ovarian
SNB-75 CNS = system: SNB-75 CNS
SK-MEL-28 melanoma = system: SK-MEL-28 melanoma
SK-OV-3 ovarian = system: SK-OV-3 ovarian
KM12 colon = system: KM12 colon
MDA-N = system: MDA-N
NCI-H460 lung = system: NCI-H460 lung
OVCAR-4 ovarian = system: OVCAR-4 ovarian
UACC-257 melanoma = system: UACC-257 melanoma
SK-MEL-2 melanoma = system: SK-MEL-2 melanoma
MOLT-4 leukemia = system: MOLT-4 leukemia
SN12C renal = system: SN12C renal
MCF7 breast = system: MCF7 breast
U251 CNS = system: U251 CNS
ACHN renal = system: ACHN renal
CAKI-1 renal = system: CAKI-1 renal
786-0 renal = system: 786-0 renal
HT29 colon = system: HT29 colon
PC-3 prostate = system: PC-3 prostate
HCC-2998 colon = system: HCC-2998 colon
HCT-116 colon = system: HCT-116 colon
HS 578T breast = system: HS 578T breast
LOX IMVI melanoma = system: LOX IMVI melanoma
A549 NSCLC = system: A549 NSCLC
OVCAR-8 ovarian = system: OVCAR-8 ovarian
EKVX NSCLC = system: EKVX NSCLC
IGROV1 ovarian = system: IGROV1 ovarian
NCI/ADR-RES ovarian = system: NCI/ADR-RES ovarian
HL-60(TB) leukemia = system: HL-60(TB) leukemia
MDA-MB-231 breast = system: MDA-MB-231 breast
TK-10 renal = system: TK-10 renal
K-562 leukemia = system: K-562 leukemia
CCRF-CEM leukemia = system: CCRF-CEM leukemia
MALME-3M melanoma = system: MALME-3M melanoma
UO-31 renal = system: UO-31 renal
M14 melanoma = system: M14 melanoma
SNB-19 CNS = system: SNB-19 CNS
SW-620 colon = system: SW-620 colon
NCI-H23 lung = system: NCI-H23 lung
HCT-15 colon = system: HCT-15 colon
DU-145 prostate = system: DU-145 prostate
RPMI-8226 leukemia = system: RPMI-8226 leukemia
T-47D breast = system: T-47D breast
SR leukemia = system: SR leukemia
HOP-62 NSCLC = system: HOP-62 NSCLC
SF-539 CNS = system: SF-539 CNS
UACC-62 melanoma = system: UACC-62 melanoma
RXF 393 renal = system: RXF 393 renal
HOP-92 NSCLC = system: HOP-92 NSCLC
MDA-MB-435 = system: MDA-MB-435
NCI-H522 lung = system: NCI-H522 lung
NCI-H226 lung = system: NCI-H226 lung

CC1CN=C(N(Cc2ccc(F)cc2)C(=O)Nc2ccc(Cl)cc2)S1 (stereo unspecified)
TGI (SK-MEL-5 melanoma): 29.4 µM | TGI (COLO 205 colon): > 100 µM | TGI (A498 renal): 67.4 µM | TGI (SF-295 CNS): > 100 µM | TGI (OVCAR-3 ovarian): > 100 µM | TGI (SF-268 CNS): > 100 µM | TGI (OVCAR-5 ovarian): > 100 µM | TGI (SNB-75 CNS): > 100 µM | TGI (SK-MEL-28 melanoma): 71.7 µM | TGI (SK-OV-3 ovarian): > 100 µM | TGI (KM12 colon): > 100 µM | TGI (MDA-N): 61.1 µM | TGI (NCI-H460 lung): > 100 µM | TGI (OVCAR-4 ovarian): > 100 µM | TGI (UACC-257 melanoma): > 100 µM | TGI (SK-MEL-2 melanoma): 37.5 µM | TGI (MOLT-4 leukemia): > 100 µM | TGI (SN12C renal): > 100 µM | TGI (MCF7 breast): 64 µM | TGI (U251 CNS): > 100 µM | TGI (ACHN renal): > 100 µM | TGI (CAKI-1 renal): > 100 µM | TGI (786-0 renal): > 100 µM | TGI (HT29 colon): 65.8 µM | TGI (PC-3 prostate): > 100 µM | TGI (HCC-2998 colon): 76.6 µM | TGI (HCT-116 colon): > 100 µM | TGI (HS 578T breast): > 100 µM | TGI (LOX IMVI melanoma): 54.5 µM | TGI (A549 NSCLC): > 100 µM | TGI (OVCAR-8 ovarian): > 100 µM | TGI (EKVX NSCLC): 69.2 µM | TGI (IGROV1 ovarian): > 100 µM | TGI (NCI/ADR-RES ovarian): > 100 µM | TGI (HL-60(TB) leukemia): 91 µM | TGI (MDA-MB-231 breast): > 100 µM | TGI (TK-10 renal): > 100 µM | TGI (K-562 leukemia): > 100 µM | TGI (CCRF-CEM leukemia): > 100 µM | TGI (MALME-3M melanoma): > 100 µM | TGI (UO-31 renal): > 100 µM | TGI (M14 melanoma): 17.4 µM | TGI (SNB-19 CNS): > 100 µM | TGI (SW-620 colon): > 100 µM | TGI (NCI-H23 lung): > 100 µM | TGI (HCT-15 colon): > 100 µM | TGI (DU-145 prostate): > 100 µM | TGI (RPMI-8226 leukemia): > 100 µM | TGI (T-47D breast): > 100 µM | TGI (SR leukemia): > 100 µM | TGI (HOP-62 NSCLC): > 100 µM | TGI (SF-539 CNS): > 100 µM

N#C/C(C(=O)Nc1ccccc1)=C(/N)N1CCCC1
TGI (SK-MEL-5 melanoma): > 100 µM | TGI (COLO 205 colon): > 100 µM | TGI (A498 renal): > 100 µM | TGI (UACC-62 melanoma): > 100 µM | TGI (SF-295 CNS): > 100 µM | TGI (OVCAR-3 ovarian): > 100 µM | TGI (SF-268 CNS): > 100 µM | TGI (OVCAR-5 ovarian): > 100 µM | TGI (RXF 393 renal): > 100 µM | TGI (SK-MEL-28 melanoma): > 100 µM | TGI (SK-OV-3 ovarian): > 100 µM | TGI (KM12 colon): > 100 µM | TGI (MDA-N): > 100 µM | TGI (NCI-H460 lung): > 100 µM | TGI (HOP-92 NSCLC): > 100 µM | TGI (OVCAR-4 ovarian): > 100 µM | TGI (UACC-257 melanoma): > 100 µM | TGI (SK-MEL-2 melanoma): > 100 µM | TGI (MOLT-4 leukemia): > 100 µM | TGI (SN12C renal): > 100 µM | TGI (MDA-MB-435): > 100 µM | TGI (NCI-H522 lung): > 100 µM | TGI (U251 CNS): > 100 µM | TGI (ACHN renal): > 100 µM | TGI (CAKI-1 renal): > 100 µM | TGI (786-0 renal): > 100 µM | TGI (HT29 colon): > 100 µM | TGI (PC-3 prostate): > 100 µM | TGI (HCC-2998 colon): > 100 µM | TGI (HCT-116 colon): > 100 µM | TGI (HS 578T breast): > 100 µM | TGI (LOX IMVI melanoma): > 100 µM | TGI (A549 NSCLC): > 100 µM | TGI (OVCAR-8 ovarian): > 100 µM | TGI (EKVX NSCLC): > 100 µM | TGI (IGROV1 ovarian): > 100 µM | TGI (NCI/ADR-RES ovarian): > 100 µM | TGI (HL-60(TB) leukemia): > 100 µM | TGI (MDA-MB-231 breast): > 100 µM | TGI (TK-10 renal): > 100 µM | TGI (K-562 leukemia): > 100 µM | TGI (CCRF-CEM leukemia): > 100 µM | TGI (MALME-3M melanoma): > 100 µM | TGI (UO-31 renal): > 100 µM | TGI (M14 melanoma): > 100 µM | TGI (SNB-19 CNS): > 100 µM | TGI (SW-620 colon): > 100 µM | TGI (NCI-H23 lung): > 100 µM | TGI (HCT-15 colon): > 100 µM | TGI (DU-145 prostate): > 100 µM | TGI (RPMI-8226 leukemia): > 100 µM | TGI (NCI-H226 lung): > 100 µM | TGI (T-47D breast): > 100 µM | TGI (SR leukemia): > 100 µM | TGI (HOP-62 NSCLC): > 100 µM | TGI (SF-539 CNS): > 100 µM

O=C(Nc1ccccn1)/C(=C\C(=O)c1ccc(Cl)cc1)Nc1ccccc1
TGI (SK-MEL-5 melanoma): > 10 µM | TGI (COLO 205 colon): > 10 µM | TGI (UACC-62 melanoma): > 10 µM | TGI (SF-295 CNS): > 10 µM | TGI (SF-268 CNS): > 10 µM | TGI (SNB-75 CNS): > 10 µM | TGI (RXF 393 renal): > 10 µM | TGI (SK-MEL-28 melanoma): > 10 µM | TGI (SK-OV-3 ovarian): > 10 µM | TGI (KM12 colon): > 10 µM | TGI (MDA-N): > 10 µM | TGI (HOP-92 NSCLC): > 10 µM | TGI (OVCAR-4 ovarian): > 10 µM | TGI (UACC-257 melanoma): > 10 µM | TGI (MOLT-4 leukemia): > 10 µM | TGI (SN12C renal): > 10 µM | TGI (MDA-MB-435): > 10 µM | TGI (MCF7 breast): > 10 µM | TGI (CAKI-1 renal): > 10 µM | TGI (786-0 renal): > 10 µM | TGI (HT29 colon): > 10 µM | TGI (PC-3 prostate): > 10 µM | TGI (HCC-2998 colon): > 10 µM | TGI (LOX IMVI melanoma): > 10 µM | TGI (A549 NSCLC): > 10 µM | TGI (OVCAR-8 ovarian): > 10 µM | TGI (EKVX NSCLC): > 10 µM | TGI (IGROV1 ovarian): > 10 µM | TGI (HL-60(TB) leukemia): > 10 µM | TGI (MDA-MB-231 breast): > 10 µM | TGI (TK-10 renal): > 10 µM | TGI (K-562 leukemia): > 10 µM | TGI (CCRF-CEM leukemia): > 10 µM | TGI (MALME-3M melanoma): > 10 µM | TGI (M14 melanoma): > 10 µM | TGI (SW-620 colon): > 10 µM | TGI (NCI-H23 lung): > 10 µM | TGI (HCT-15 colon): > 10 µM | TGI (DU-145 prostate): > 10 µM | TGI (RPMI-8226 leukemia): > 10 µM | TGI (T-47D breast): > 10 µM | TGI (SR leukemia): > 10 µM | TGI (HOP-62 NSCLC): > 10 µM

From PubChem BioAssay (NCI)
